Source: patent publication US10231463B2, “Food mass suitable for microwaving” (Chemische Fabrik Budenheim KG, priority 2013, dated 2019)

How the values were obtained:
[1] = Solubility of the additive in water at 20° C.; assay type: physicochemical
[2] = Thawing and baking trials with yeast-raised wheat frozen doughs in a microwave oven; details: yeast-raised wheat frozen dough; for ΔT (temperature difference between crust temperature and crumb temperature): 2 parts by weight additive, 600 watts, 120 seconds; for Microwave activity: assessment scale from ΔT
Experimental: Dough Composition (Basic Recipe):
In addition 2 parts by weight of microwave absorber were added to the basic recipe.
• Mixing and kneading time: 3+2 minutes (the latter in a Stephan mixer) • Dough standing time: 20 minutes • Dough piece weight: 200 g • Cooking time of the dough pieces: 20 minutes • Freezing time: about 4 hours • Deep freeze storage time: about 2 days Thawing and Baking Trials:
The deep-frozen dough pieces were exposed to microwave radiation in a microwave oven from Panasonic (model: NN-GD560M—inverter microwave) for a predetermined period of 120 seconds and with a predetermined microwave power of 600 watts (according to the device indication). After 2 minutes of standing time the temperature of the crust and the crumb was measured by means of an infrared temperature sensor at various measurement points on the dough piece.
Measurement value 1 (M1)=average crust temperature outside
Measurement value 2 (M2)=average crumb temperature in the interior of the dough piece.

[3] = Pore volume by nitrogen gas adsorption (BJH method, BELSORP-mini II); assay type: physicochemical; details: total pore volume Vp, nitrogen adsorption at 77.3 K
Excerpt: Determining the Pore Volume
The pore volume in accordance with the present invention is characterised by means of gas adsorption. The recording of physisorption isotherms (adsorption and desorption isotherms) of inert gas molecules at low temperatures is routinely used for determining solids parameters.
The BJH method provides an algorithm for the calculation of pore width distribution from nitrogen adsorption data on the assumption of a cylindrical pore geometry. In that respect consideration is given to the change in the adsorbed volume in the pores in dependence on the pore radius, wherein the pore radius distribution function is related as a relative value to the total pore volume. […] It is assumed that the entire pore system is filled with a capillary condensate.

[4] = Thawing and baking trials with puff pastry in a microwave oven; details: for ΔT (temperature difference between crust temperature and crumb temperature): 2 parts by weight additive, puff pastry dough pieces; for Microwave activity: assessment scale from ΔT, puff pastry doughs
Experimental: A puff pastry from Veripan was used as the basic recipe.
2 parts by weight of microwave absorber were further added to the basic recipe.
Wheat flour, inverted sugar, emulsifier and optionally microwave absorber were put into a mixing container and mixed. The water and 20% of the vegetable fat were added and kneaded for 3 minutes at a low stage and for 5 minutes at a medium stage with a spiral kneader. The dough temperature was monitored. The target temperature was 18° C. After that the remaining vegetable fat was beaten into the dough. The dough was then folded at intervals each of 30 minutes in 4 working steps, more specifically 2 single and 2 double turns. They give by calculation 144 fat layers (margarine), divided into very thin dough and fat layers. Before processing the dough was stored in a cooled condition for 12 hours.
Unbaked puff pastry dough roundels without filling and pre-baked puff pastry dough pockets (hot pockets) with a tomato sauce filling were respectively subjected to microwave radiation as deep-frozen dough pieces in a microwave oven from Panasonic (see Example 2) for a predetermined period and with a predetermined microwave power. After a […] standing time the temperature of the dough piece was measured by means of a thermal imaging camera (Fluke Ti20) and evaluated.
Measurement value 1 (M1)=averaged crust temperature outside
Measurement value 2 (M2)=averaged crumb temperature in the interior of the dough piece.
Puff pastry dough roundel (PPD-RO): 440 watts; 200 seconds
Puff pastry dough hot pockets (PPD-HP): 600 watts; 300 seconds
Table 3 hereinafter reproduces the additives used, the temperature measurement values M1 and M2 and the corresponding temperature difference (ΔT) between crust temperature and crumb temperature of the dough piece.
Assessment of Microwave Activity in Puff Pastry Doughs 1: ΔT=>20° C.=very good 2: ΔT=15 to <20° C.=good 3: ΔT=<15° C.=no additional additive

[5] = Baking trials with ready-to-eat baking mixture (lemon cake) in a microwave oven; details: for ΔT (temperature difference between crust temperature and crumb temperature): 2 parts by weight additive, 600 watts, 140 seconds; for Microwave activity: assessment scale from ΔT
Experimental: A ready-to-eat baking mixture for lemon cakes from […] was used as the basic recipe. […] Whole egg and sugar were put into a mixing container and mixed. The powder mixture of the composition (wheat flour, cooking salt and so forth) was slowly mixed in. Vegetable oil, flavouring substances and alcohol were then slowly added and mixing was effected for 12 minutes. After that baking raising agent was added and mixed at a medium stage for a further 2 minutes. After that the microwave absorber was mixed in, the mixer was switched off, and the material was tipped out and stored cool.

Row | Compound | Solubility [1] [mg/mL] | ΔT (temperature difference between crust temperature and crumb temperature) [2] [°C] | Microwave activity [2] | Pore Volume [3] | ΔT (temperature difference between crust temperature and crumb temperature) [4] [°C] | Microwave activity [4] | ΔT (temperature difference between crust temperature and crumb temperature) [5] [°C] | Microwave activity [5]
1 | O=P([O-])([O-])OP(=O)([O-])OP(=O)([O-])[O-].[K+].[K+].[K+].[K+].[K+] [KTPP(V), Potassium tripolyphosphate, reference compound] | >200 | 12.3 | 3 (ΔT=<25° C.=no additional activity) | 1.1 10^−3 cm^3/g | – | – | – | –
2 | O=P([O-])([O-])[O-].[Fe+3] [FeOP, Iron-III-orthophosphate] | – | 47.0 | 1 (ΔT=>40° C.=very good) | 19 10^−3 cm^3/g | 15.1 | 2 (ΔT=15 to <20° C.=good) | 15.9 | 2 (ΔT=15 to <20° C.=good)
3 | O=P([O-])([O-])OP(=O)([O-])[O-].[Mg+2].[Mg+2] [MgPP, Magnesium pyrophosphate] | – | 45.8 | 1 (ΔT=>40° C.=very good) | 7.1 10^−3 cm^3/g | 15.2 | 2 (ΔT=15 to <20° C.=good) | 19.1 | 2 (ΔT=15 to <20° C.=good)
4 | Magnesium metaphosphate [MMP] | <0.1 | 38.4 | 2 (ΔT=25 to 40° C.=good) | 5.1 10^−3 cm^3/g | – | – | – | –
5 | O=P([O-])(O)OP(=O)([O-])O.[Ca+2] [CAPP, Acid calcium pyrophosphate] | – | 50.0 | 1 (ΔT=>40° C.=very good) | 3.6 10^−3 cm^3/g | 26.1 | 1 (ΔT=>20° C.=very good) | 21.2 | 1 (ΔT=>20° C.=very good)
6 | O=P(O)(O)OP(=O)(O)OP(=O)(O)O [STPP(V), Sodium tripolyphosphate, reference compound] | 145 | 12.6 | 3 (ΔT=<25° C.=no additional activity) | 1.1 10^−3 cm^3/g | – | – | – | –
7 | Sodium aluminium phosphate 1:3:8 NaH14Al3(PO4)8 [SALP 1] | 15 | 29.6 | 2 (ΔT=25 to 40° C.=good) | 13 10^−3 cm^3/g | – | – | – | –
8 | O=P([O-])([O-])OP(=O)([O-])[O-].O=P([O-])([O-])OP(=O)([O-])[O-].O=P([O-])([O-])OP(=O)([O-])[O-].[Fe+3].[Fe+3].[Fe+3].[Fe+3] [FePP, Iron-III-pyrophosphate] | – | 42.6 | 1 (ΔT=>40° C.=very good) | 30 10^−3 cm^3/g | 16.9 | 2 (ΔT=15 to <20° C.=good) | 26.4 | 1 (ΔT=>20° C.=very good)
9 | Sodium aluminium phosphate 3:2:8 Na3H15Al2*PO4)8 [SALP 2] | 15 | 20.5 | 2 (ΔT=25 to 40° C.=good) | 6.4 10^−3 cm^3/g | – | – | – | –
